Data taken from PubChem BioAssay (NCI).
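48-hour exposure; five concentrations; linearly interpolated endpoints. Definition used: TGI = concentration required for complete inhibition of growth.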

Columns and labels:
Assay in all cases: DTP human tumour cell line panel, 48 h
A498 renal = tested on: A498 renal
RXF 393 renal = tested on: RXF 393 renal
MCF7 breast = tested on: MCF7 breast
HCT-116 colon = tested on: HCT-116 colon
SF-268 CNS = tested on: SF-268 CNS
A549 NSCLC = tested on: A549 NSCLC
HCC-2998 colon = tested on: HCC-2998 colon
MDA-MB-435 = tested on: MDA-MB-435
CCRF-CEM leukemia = tested on: CCRF-CEM leukemia
UACC-62 melanoma = tested on: UACC-62 melanoma
NCI-H226 lung = tested on: NCI-H226 lung

Structure (SMILES) | TGI (A498 renal) [µM] | TGI (RXF 393 renal) [µM] | TGI (MCF7 breast) [µM] | TGI (HCT-116 colon) [µM] | TGI (SF-268 CNS) [µM] | TGI (A549 NSCLC) [µM] | TGI (HCC-2998 colon) [µM] | TGI (MDA-MB-435) [µM] | TGI (CCRF-CEM leukemia) [µM] | TGI (UACC-62 melanoma) [µM] | TGI (NCI-H226 lung) [µM]
COc1ccc(C(C2=C(O)COC2=O)c2cc3c(cc2O)OCO3)cc1OC (centres undefined) | > 100 | > 100 | > 100 | > 100 | > 100 | > 100 | > 100 | > 100 | > 100 | > 100 | > 100
O=[N+]([O-])c1ccc(O)c(/C=N/NC(=S)N2CCCCC2)c1 | > 44.2 | > 100 | > 100 | 40.3 | 24.6 | > 100 | 34.1 | > 83 | > 82 | > 30.5 | 5.94
COc1ccc(/C=C/C2=NN(c3cccc(S(=O)(=O)O)c3)C3(C2)SCC(=O)N3c2nc3ccccc3s2)cc1 (centres undefined) | > 100 | > 100 | > 100 | > 100 | > 100 | > 100 | > 100 | > 100 | 77.5 | > 100 | > 100
CCOC(=O)Oc1ccc2c(c1)c(=O)c1c(NCCN(CC)CC)ccc3nnn2c31 | 21.5 | 18.8 | 12 | 12.6 | 17.1 | 12.4 | 17.4 | 16.4 | 1.54 | 24.3 | 7.71
O=C(NC(=S)NC(=O)c1cc(O)c(O)c(O)c1)c1cc(O)c(O)c(O)c1 | > 100 | 41.5 | > 100 | 44.4 | > 100 | > 100 | 87.9 | 24.7 | > 100 | 49.4 | > 100
CN(C)c1cc[n+](-c2nc(/N=C(\[O-])C(F)(F)F)nc3c2ncn3C2CC(O)C(CO)O2)cc1 (centres undefined) | > 100 | > 100 | > 100 | > 100 | > 100 | > 100 | > 100 | > 100 | > 100 | > 100 | > 100
NC(Cc1ccc(S(=O)(=O)O)cc1)C(=O)NC(Cc1ccc(S(=O)(=O)O)cc1)C(=O)O (centres undefined) | > 100 | > 100 | > 100 | > 100 | > 100 | > 100 | > 100 | > 100 | > 100 | > 100 | > 100
CCOc1cc(NC(C)=O)ccc1C(=O)NN1C(=O)CSC1c1ccccc1 (centres undefined) | > 100 | > 100 | > 100 | > 100 | > 100 | > 100 | > 100 | > 100 | > 100 | > 100 | > 100
O=C1Nc2ccccc2/C1=c1\[nH]c(=O)/c(=C\c2ccc(OCc3ccccc3)cn2)[nH]c1=O | 77.9 | 34.9 | > 100 | > 100 | > 100 | > 100 | > 100 | > 100 | > 100 | > 100 | > 100
C[Si](C)(C)C1=C([Si](C)(C)C)C(Cl)(Cl)C1=O | 29.8 | 5.33 | 23.4 | 7.02 | 21.1 | 49.7 | 17.6 | 7.22 | 1.42 | 7.69 | 8.86
c1cnc(N2CCN(Cc3c[nH]c4ccccc34)CC2)nc1 | > 100 | > 100 | 53.7 | > 100 | > 100 | > 100 | 38.9 | > 100 | > 100 | > 100 | > 100
CSc1c(C(=O)Nc2ccc(Cl)cc2)c(N)n(N)c(=O)c1C#N | > 100 | > 100 | > 100 | > 100 | > 100 | > 100 | > 100 | > 100 | > 100 | > 100 | > 100
CN(C)c1cccc(NC2=NCCO2)c1 | > 100 | > 100 | > 100 | > 100 | > 100 | > 100 | > 100 | 42.9 | > 100 | > 100 | > 100
O=C1C(CN2CCOCC2)CCCC1CN1CCOCC1 (centres undefined) | 42.3 | 4.14 | 1.57 | 2.83 | 43.3 | 55.4 | 10.3 | 27.5 | 4.03 | 14.5 | 40.3
O=C1c2cn[nH]c2C(c2ccccc2)N1c1ccccc1 (centres undefined) | > 10 | > 10 | > 10 | > 10 | > 10 | > 10 | > 10 | > 10 | > 10 | > 10 | > 10
O=C(NNc1nc(-c2ccccc2)cs1)C(F)(F)F | 88.2 | > 100 | > 100 | > 100 | > 100 | > 100 | > 100 | > 100 | > 100 | > 100 | > 100
CC(=O)N1CCn2c1nc1cc(Cl)ccc12 | > 100 | 53.9 | > 100 | > 100 | > 100 | > 100 | > 100 | > 100 | > 100 | > 100 | > 100
CCN(CC)c1ccc(/C=C/C=C2C(=O)NC(=S)NC2=O)cc1 | > 100 | 45.2 | > 100 | > 100 | > 100 | > 100 | > 100 | 34.7 | > 100 | > 100 | 99
CN(C)/N=C1\CC(c2ccccc2)C(C#N)(C#N)C1(C#N)C#N (centres undefined) | 33.8 | 54.5 | > 100 | 39.8 | 35.6 | > 100 | 33.1 | 81.8 | > 100 | 41.8 | 84.7
CCn1c(SCC(=O)NNC(=S)NC)nc2ccccc2c1=O | > 100 | > 100 | > 100 | > 100 | > 100 | > 100 | > 100 | > 100 | > 100 | > 100 | > 100
COc1cc(C2c3cc4c(cc3OC(N3CCNCC3)C2C)OCO4)cc(OC)c1OC (centres undefined) | 52.1 | 0.99 | 66.1 | 9.23 | > 44.2 | > 53.9 | 5.83 | 1.1 | 17.7 | 14.9 | 8.78
CC1CC(=O)N(N(C)C)C(C#N)(C#N)C1(C#N)C#N (centres undefined) | 34.1 | 26.6 | > 100 | 51.7 | > 58.9 | > 74.2 | 34.9 | 32.9 | 4.8 | 39.3 | 67
Cc1ccc2c(c1)C(=O)C(C1OC(=O)c3ccccc31)C2 (centres undefined) | > 100 | > 100 | > 100 | > 100 | > 100 | > 100 | > 100 | > 100 | > 100 | > 100 | > 100
C[Si](C)(c1ccccc1)[C@H]1CCCC=C1CCNC1c2ccccc2CCc2ccccc21 | > 100 | > 100 | > 100 | > 100 | > 100 | > 100 | > 100 | > 100 | > 100 | > 100 | > 100
